Results as given in BigSolDB 2.1.

Cl.NC1CCSC1=O (racemic)
solubility (mole fraction)
Conditions | in 1,4-dioxane | in 2-butanone | in acetone | in acetonitrile | in dichloromethane | in ethanol | in ethyl acetate | in isopropanol | in methanol
283.15 K | – | 0.000125 | 0.000115 | 4.5e-05 | 6.4e-05 | 0.00319 | 0.000238 | 0.000521 | 0.0154
288.15 K | – | – | – | – | 0.000114 | – | – | – | –
293.15 K | 0.0005 | 0.00021 | 0.000202 | 8.7e-05 | 0.000171 | 0.00413 | 0.000281 | 0.000786 | 0.0187
298.15 K | – | – | – | – | 0.000262 | – | – | – | –
303.15 K | 0.000691 | 0.000307 | 0.00026 | 0.000135 | 0.000356 | 0.00509 | 0.000342 | 0.00116 | 0.0226
308.15 K | 0.000783 | – | – | – | – | – | – | – | –
313.15 K | 0.000872 | 0.000361 | 0.000331 | 0.000175 | – | 0.00627 | 0.000385 | 0.00154 | 0.0272
323.15 K | 0.000995 | 0.000431 | 0.000439 | 0.000212 | – | 0.00766 | 0.000458 | 0.00187 | 0.0326
